Results as given in PubChem BioAssay (NCI).
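GI50 marks 50% less growth. Definition used: TGI = concentration required for complete inhibition of growth.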

Experiments:
Test in all cases: NCI tumour cell line growth inhibition, 384-well format
ACHN renal = system: ACHN renal
MDA-MB-435 melanoma = system: MDA-MB-435 melanoma
KM12 colon = system: KM12 colon
HCT-116 colon = system: HCT-116 colon
MDA-MB-468 breast = system: MDA-MB-468 breast
HCT-15 colon = system: HCT-15 colon
SK-MEL-2 melanoma = system: SK-MEL-2 melanoma
UO-31 renal = system: UO-31 renal
OVCAR-3 ovarian = system: OVCAR-3 ovarian
OVCAR-5 ovarian = system: OVCAR-5 ovarian
UACC-257 melanoma = system: UACC-257 melanoma
CAKI-1 renal = system: CAKI-1 renal
MCF7 breast = system: MCF7 breast
SF-295 CNS = system: SF-295 CNS
NCI-H226 lung = system: NCI-H226 lung
HOP-92 NSCLC = system: HOP-92 NSCLC
MALME-3M melanoma = system: MALME-3M melanoma
SF-539 CNS = system: SF-539 CNS
HT29 colon = system: HT29 colon
BT-549 breast = system: BT-549 breast
SF-268 CNS = system: SF-268 CNS
NCI-H522 lung = system: NCI-H522 lung
NCI-H23 lung = system: NCI-H23 lung
NCI-H322M lung = system: NCI-H322M lung
SNB-19 CNS = system: SNB-19 CNS
HL-60(TB) leukemia = system: HL-60(TB) leukemia
OVCAR-8 ovarian = system: OVCAR-8 ovarian
SK-MEL-28 melanoma = system: SK-MEL-28 melanoma
MDA-MB-231 breast = system: MDA-MB-231 breast
SR leukemia = system: SR leukemia
SW-620 colon = system: SW-620 colon
A549 NSCLC = system: A549 NSCLC
A498 renal = system: A498 renal
RXF 393 renal = system: RXF 393 renal
OVCAR-4 ovarian = system: OVCAR-4 ovarian
U251 glioblastoma = system: U251 glioblastoma
COLO 205 colon = system: COLO 205 colon
EKVX NSCLC = system: EKVX NSCLC
SN12C renal = system: SN12C renal
TK-10 renal = system: TK-10 renal
K-562 leukemia = system: K-562 leukemia
SK-OV-3 ovarian = system: SK-OV-3 ovarian
HOP-62 NSCLC = system: HOP-62 NSCLC
SK-MEL-5 melanoma = system: SK-MEL-5 melanoma
DU-145 prostate = system: DU-145 prostate
PC-3 prostate = system: PC-3 prostate
786-0 renal = system: 786-0 renal
UACC-62 melanoma = system: UACC-62 melanoma
MOLT-4 leukemia = system: MOLT-4 leukemia
NCI-H460 NSCLC = system: NCI-H460 NSCLC
IGROV1 ovarian = system: IGROV1 ovarian
T-47D breast = system: T-47D breast
HS 578T breast = system: HS 578T breast
SNB-75 CNS = system: SNB-75 CNS

In the case of CC[C@@H]1C(=O)N(C)c2cnc(Nc3ccc(C(=O)NC4CCC(N5CCN(CC6CC6)CC5)CC4)cc3OC)nc2N1C(C)C (stereo partly drawn), the GI50 (ACHN renal) is reported as 89.2 nM, the TGI (ACHN renal) is reported as 1660 nM and the GI50 (MDA-MB-435 melanoma) is reported as less than 10 nM. The TGI (MDA-MB-435 melanoma) was 13.7 nM, the GI50 (KM12 colon) was 10.3 nM and the TGI (KM12 colon) was 50.7 nM. It also gave a GI50 (HCT-116 colon) of less than 10 nM, a TGI (HCT-116 colon) of 1030 nM and a GI50 (MDA-MB-468 breast) of less than 10 nM. The TGI (MDA-MB-468 breast) was less than 10 nM, the GI50 (HCT-15 colon) was 35.8 nM and the TGI (HCT-15 colon) was 549 nM. The GI50 (SK-MEL-2 melanoma) was less than 10 nM, the TGI (SK-MEL-2 melanoma) was 26.7 nM and the GI50 (UO-31 renal) was 589 nM. For the same compound, the TGI (UO-31 renal) was 1870 nM, the GI50 (OVCAR-3 ovarian) was less than 10 nM and the TGI (OVCAR-3 ovarian) was 145 nM. The GI50 (OVCAR-5 ovarian) was 38.9 nM, the TGI (OVCAR-5 ovarian) was 1710 nM and the GI50 (UACC-257 melanoma) was 1160 nM. It also gave a TGI (UACC-257 melanoma) of 2390 nM, a GI50 (CAKI-1 renal) of 100 nM and a TGI (CAKI-1 renal) of 1540 nM. It also gave a GI50 (MCF7 breast) of 11 nM, a TGI (MCF7 breast) of 1270 nM and a GI50 (SF-295 CNS) of 31.4 nM. For the same compound, the TGI (SF-295 CNS) was 1510 nM, the GI50 (NCI-H226 lung) was 151 nM and the TGI (NCI-H226 lung) was 1750 nM. It also gave a GI50 (HOP-92 NSCLC) of 96.9 nM, a TGI (HOP-92 NSCLC) of 1700 nM and a GI50 (MALME-3M melanoma) of 44.6 nM. The TGI (MALME-3M melanoma) was 1760 nM, the GI50 (SF-539 CNS) was 30.5 nM and the TGI (SF-539 CNS) was 159 nM. It also gave a GI50 (HT29 colon) of less than 10 nM, a TGI (HT29 colon) of 11.1 nM and a GI50 (BT-549 breast) of 19.6 nM. The TGI (BT-549 breast) was 159 nM, the GI50 (SF-268 CNS) was 32.1 nM and the TGI (SF-268 CNS) was 1310 nM. For the same compound, the GI50 (NCI-H522 lung) was less than 10 nM, the TGI (NCI-H522 lung) was less than 10 nM and the GI50 (NCI-H23 lung) was less than 10 nM. For the same compound, the TGI (NCI-H23 lung) was 28.2 nM, the GI50 (NCI-H322M lung) was 66 nM and the TGI (NCI-H322M lung) was 1100 nM. The GI50 (SNB-19 CNS) was 96.8 nM, the TGI (SNB-19 CNS) was 2970 nM and the GI50 (HL-60(TB) leukemia) was less than 10 nM. It also gave a TGI (HL-60(TB) leukemia) of less than 10 nM, a GI50 (OVCAR-8 ovarian) of 18.1 nM and a TGI (OVCAR-8 ovarian) of 38.5 nM. It also gave a GI50 (SK-MEL-28 melanoma) of 87.6 nM, a TGI (SK-MEL-28 melanoma) of 2120 nM and a GI50 (MDA-MB-231 breast) of 42.4 nM. For the same compound, the TGI (MDA-MB-231 breast) was 1790 nM, the GI50 (SR leukemia) was less than 10 nM and the TGI (SR leukemia) was less than 10 nM. The GI50 (SW-620 colon) was less than 10 nM, the TGI (SW-620 colon) was 107 nM and the GI50 (A549 NSCLC) was 41.6 nM. For the same compound, the TGI (A549 NSCLC) was 1040 nM, the GI50 (A498 renal) was 69.6 nM and the TGI (A498 renal) was 1260 nM. For the same compound, the GI50 (RXF 393 renal) was less than 10 nM, the TGI (RXF 393 renal) was 10.6 nM and the GI50 (OVCAR-4 ovarian) was 222 nM. For the same compound, the TGI (OVCAR-4 ovarian) was 1120 nM, the GI50 (U251 glioblastoma) was 40.8 nM and the TGI (U251 glioblastoma) was 1420 nM. It also gave a GI50 (COLO 205 colon) of less than 10 nM, a TGI (COLO 205 colon) of 1310 nM and a GI50 (EKVX NSCLC) of 37.1 nM. It also gave a TGI (EKVX NSCLC) of 235 nM, a GI50 (SN12C renal) of 232 nM and a TGI (SN12C renal) of 3340 nM. The GI50 (TK-10 renal) was 66.6 nM, the TGI (TK-10 renal) was 1390 nM and the GI50 (K-562 leukemia) was less than 10 nM. It also gave a TGI (K-562 leukemia) of 23.8 nM, a GI50 (SK-OV-3 ovarian) of 21.3 nM and a TGI (SK-OV-3 ovarian) of 176 nM. For the same compound, the GI50 (HOP-62 NSCLC) was 23.3 nM, the TGI (HOP-62 NSCLC) was 1160 nM and the GI50 (SK-MEL-5 melanoma) was 14.7 nM. For the same compound, the TGI (SK-MEL-5 melanoma) was 127 nM, the GI50 (DU-145 prostate) was 16.6 nM and the TGI (DU-145 prostate) was 1200 nM. The GI50 (PC-3 prostate) was 53.4 nM, the TGI (PC-3 prostate) was 2630 nM and the GI50 ([…]-0 renal) was 90.7 nM. It also gave a TGI (786-0 renal) of 1150 nM, a GI50 (UACC-62 melanoma) of 27.9 nM and a TGI (UACC-62 melanoma) of 1530 nM. For the same compound, the GI50 (MOLT-4 leukemia) was less than 10 nM, the TGI (MOLT-4 leukemia) was less than 10 nM and the GI50 (NCI-H460 NSCLC) was less than 10 nM. The TGI (NCI-H460 NSCLC) was 1280 nM, the GI50 (IGROV1 ovarian) was 44.2 nM and the TGI (IGROV1 ovarian) was 1170 nM. It also gave a GI50 (T-47D breast) of 191 nM, a TGI (T-47D breast) of 897 nM and a GI50 (HS 578T breast) of 19.5 nM. For the same compound, the TGI (HS 578T breast) was 49.7 nM, the GI50 (SNB-75 CNS) was 71.4 nM and the TGI (SNB-75 CNS) was 2100 nM.
